According to patent publication US12509463B2, “JAK inhibitor and preparation method therefor” (FELICAMED BIOTECHNOLOGY CO., LTD., priority 2019, dated 2025):

Assays:
Canine PBMC cells = assay: IL-2 and ConA induced proliferation of canine PBMC cells (flow cytometry, CD4+ population); format: cell-based; conditions: Canis lupus familiaris, CFSE stained, IL-2 and concanavalin A, 120 h, MFI of CD4+ population, read-out: Cell IC50
Protocol: Recombinant canine IL-2 (Cys147Ser) protein was purchased from R&D (Cat #1815-CL-020/CF). Canine CD4 Alexa Fluor 647-conjugated antibody was purchased from R&D […] A from Canavalia ensiformis (Jack bean) was purchased from Sigma (Cat #C5275-5MG). Oclacitinib maleate was purchased from AbMole Bioscience (Cat #M5827). PBMC cells were purchased from AllCells (Cat #DPB-002).
Flow cytometry is a technology used for detecting and measuring physical and chemical characteristics of populations of cells or particles. Canine PBMC was collected and stained with CFSE, and then the cells (1×10*5 cells/well) were inoculated onto a 96-well plate and incubated for 1 h in a 5% CO2 incubator at 37° C. […] Afterwards, cells were collected and stained with canine CD4 Alexa Fluor 647-conjugated antibodies.
Samples containing cells were resuspended by a staining buffer and injected into a flow cytometry. […] When cells passed through laser beam, a detector detected the scattered light of the cells or particles. The front detector detected forward scatter (FS), multiple detectors placed on the side detected side scatter (SS); and a fluorescence detector detected fluorescence emitted by the stained cells or particles. […]
CD4^+ was circled from lymphocyte populations. MFI of the CD4^+ population was calculated. […]

[1] = tested on: pruritus caused by atopic dermatitis; conditions: dogs, cited from earlier work
JAK1 = target: T1, JAK1 (Homo sapiens, UniProt P23458); assay: JAK1 enzymology experiment (HTRF KinEASE-TK); format: biochemical; conditions: JAK1 enzyme activity, 10 uM ATP, 19.76 nM JAk1, 30 min at 25° C., HTRF 665/615; read-out: Relative IC50
T1 construct: purchased Thermo PV4774
Protocol: JAK1 is a protein tyrosine kinase, and purchased from Thermo (Cat #PV4774). ATP was purchased from Thermo […] was purchased from Selleck (Cat #55001), and HTRF KinEASE-TK kit was purchased from Cisbio (Cat #62TKOPEC).
HTRF®KinEASE™-TK was a universal method to measure activity of tyrosine kinase by a substrate and a universal detection system. The reaction was performed in a 384-well plate (Greiner, Cat #784075), and the total reaction system was 20 ul. The reaction system mainly included a 1× kinase buffer solution, 5 mM MgCl2, 0.625 mM EGTA, 0.06 uM SEB, 1 mM DTT, 0.01% Brij-35, 1 uM TK-Sub-biotin and 10 uM ATP. The compounds prepared in Examples 1-8 and the control compound Oclacitinib were continuously diluted by DMSO to 10 concentration points, and then 100 nl was transferred to a test plate. After 19.76 nM JAk1 was added, the reaction started, 30 min after reaction at 25° C., a detection reagent was added to terminate the reaction (0.25×TK Antibody, 62.5 nM Streptavidin-XL665). After standing for 60 min at room temperature, FRET signal was read out on a Spark 10M or an envision plate reader. (HTRF 665/615=665 nm signal value/615 nm signal value).
665/615 signal ratio was converted to percentage inhibition. […]

T1 sequence (P23458 866-1154 limits assumed): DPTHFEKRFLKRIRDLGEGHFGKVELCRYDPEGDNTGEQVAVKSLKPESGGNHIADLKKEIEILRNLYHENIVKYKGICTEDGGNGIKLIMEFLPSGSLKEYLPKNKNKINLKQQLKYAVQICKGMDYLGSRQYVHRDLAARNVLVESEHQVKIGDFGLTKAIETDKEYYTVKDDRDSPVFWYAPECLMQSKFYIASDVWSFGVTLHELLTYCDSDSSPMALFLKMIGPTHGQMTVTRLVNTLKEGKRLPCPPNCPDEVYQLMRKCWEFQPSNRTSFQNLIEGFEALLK

CNS(=O)(=O)C[C@H]1CC[C@H](N(C)c2ncnc3[nH]ccc23)CC1 [Oclacitinib]
IC50 (Canine PBMC cells): 447 nM
laboratory animals with more than 50% pruritus reaction relieved ([1]; on the 7th day of treatment): exceeding 70%
time to relieve itching ([1]; oral 0.4-0.6 mg/kg twice a day): ≤ 24 h
treatment of pruritus caused by atopic dermatitis ([1]; oral 0.4-0.6 mg/kg twice a day): safe and effective
IC50 (JAK1): 12.9 nM
